The results in this text go back to US7678557B2, “Methods for the accumulation and retention of immune-enhancing, bacterial-derived ribonucleotides (ORN) in bacteria” (priority 1993, dated 2010).

The test has as its system L. monocytogenes. In words: Disk diffusion assay of antibiotic susceptibility before and after 6 serial washes in PBS (Example 9). Conditions: disk content per antimicrobial, average of 6 experiments (SD). The format is cell-based. From the text:
The disk diffusion assay was used to determine the susceptibility of vegetative forms of L. monocytogenes, before and after 6 serial 20-min washes in PBS. (See Bauer, A, Kirby, W, Sherris, J, Turck, M, 1966 Antibiotic Susceptibility Testing by a Standardize Single Disk Method, Amer J Clin Path 36:41-44).
Data are averages of 6 experiments. SD is in parentheses.
A general note: Agar diffusion results depend on both activity and mobility in agar.

The mark [1] stands for this setting: After 6 Washes (20 min each in PBS), L. monocytogenes.
[2] abbreviates: Before Washing, vegetative L. monocytogenes.

With `CC1(C)S[C@@H]2[C@H](NC(=O)[C@H](N)c3ccccc3)C(=O)N2[C@H]1C(=O)O` [Ampicillin], the “Diameter of Zone of Inhibition” value runs as follows: under setting [1], 30 mm (3.6); under setting [2], 32 mm (3.8).

As for `NC[C@H]1O[C@H](O[C@H]2[C@H](O)[C@@H](O[C@H]3O[C@H](CO)[C@@H](O)[C@H](N)[C@H]3O)[C@H](N)C[C@@H]2N)[C@H](O)[C@@H](O)[C@@H]1O` [Kanamycin], the “Diameter of Zone of Inhibition” value under setting [2] is listed as 11 (2.66) mm.

Turning to `CN(C)[C@@H]1C(O)=C(C(N)=O)C(=O)[C@@]2(O)C(O)=C3C(=O)c4c(O)cccc4[C@@](C)(O)[C@H]3C[C@@H]12` [Tetracycline], the “Diameter of Zone of Inhibition” value by setting is: under setting [1], 45 (6.3) mm; under setting [2], 40 (5.0) mm.

With `CN[C@H](CC(C)C)C(=O)N[C@H]1C(=O)N[C@@H](CC(N)=O)C(=O)N[C@H]2C(=O)N[C@H]3C(=O)N[C@H](C(=O)N[C@H](C(=O)O)c4cc(O)cc(O)c4-c4cc3ccc4O)[C@H](O)c3ccc(c(Cl)c3)Oc3cc2cc(c3O[C@@H]2O[C@H](CO)[C@@H](O)[C@H](O)[C@H]2O[C@H]2C[C@](C)(N)[C@H](O)[C@H](C)O2)Oc2ccc(cc2Cl)[C@H]1O` [Vancomycin], the “Diameter of Zone of Inhibition” value by setting is: under setting [1], 30 (4.2) mm; under setting [2], 25 (3.7) mm.

Take Polymixin B: the “Diameter of Zone of Inhibition” value under setting [2] was 0 mm.
